In paper PMC9115913 (Biological chemistry, 2022):
Values after ≈ are worked out from the molar mass of the structure shown. Values joined by “and” are separate entries in the source; they are usually repeats but may differ in a detail not shown here. Identical values can stand only once. Like-named read-outs stand apart in the source and are kept apart here.

Columns and labels:
S. pneumoniae IU1945 = experiment: Antimicrobial susceptibility assay; type: cell-based; conditions: Streptococcus pneumoniae
PBP1a = PBP1a (Streptococcus pneumoniae, UniProt Q8DR59); experiment: cell-based; type: binding; conditions: IC50 PBPla
Chain of PBP1a (Q8DR59 whole entry): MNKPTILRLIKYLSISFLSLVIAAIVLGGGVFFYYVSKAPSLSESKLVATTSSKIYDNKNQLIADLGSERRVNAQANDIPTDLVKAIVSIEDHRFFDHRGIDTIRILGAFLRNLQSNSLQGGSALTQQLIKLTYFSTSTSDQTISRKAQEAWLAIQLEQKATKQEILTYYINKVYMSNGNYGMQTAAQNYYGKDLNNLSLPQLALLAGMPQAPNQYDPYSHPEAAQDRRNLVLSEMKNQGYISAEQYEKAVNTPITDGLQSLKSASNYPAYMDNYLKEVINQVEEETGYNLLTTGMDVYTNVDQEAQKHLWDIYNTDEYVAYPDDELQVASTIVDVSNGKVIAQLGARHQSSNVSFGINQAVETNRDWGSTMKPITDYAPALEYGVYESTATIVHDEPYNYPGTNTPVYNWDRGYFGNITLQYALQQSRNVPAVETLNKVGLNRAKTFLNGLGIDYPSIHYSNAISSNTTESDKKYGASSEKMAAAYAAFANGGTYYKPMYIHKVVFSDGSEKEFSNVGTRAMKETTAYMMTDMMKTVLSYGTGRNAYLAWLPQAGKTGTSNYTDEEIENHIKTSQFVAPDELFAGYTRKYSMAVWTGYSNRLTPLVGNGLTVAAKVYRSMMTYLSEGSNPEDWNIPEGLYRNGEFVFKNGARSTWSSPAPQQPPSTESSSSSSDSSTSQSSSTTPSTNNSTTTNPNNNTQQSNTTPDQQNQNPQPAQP

PBP1b = PBP1b (Streptococcus pneumoniae, UniProt Q7CRA4); type: binding; conditions: read-out: IC50 PBP1b
PBP2x = PBP2x (Streptococcus pneumoniae, UniProt P59676); experiment: cell-based; type: binding
Chain of PBP2x (P59676 whole entry): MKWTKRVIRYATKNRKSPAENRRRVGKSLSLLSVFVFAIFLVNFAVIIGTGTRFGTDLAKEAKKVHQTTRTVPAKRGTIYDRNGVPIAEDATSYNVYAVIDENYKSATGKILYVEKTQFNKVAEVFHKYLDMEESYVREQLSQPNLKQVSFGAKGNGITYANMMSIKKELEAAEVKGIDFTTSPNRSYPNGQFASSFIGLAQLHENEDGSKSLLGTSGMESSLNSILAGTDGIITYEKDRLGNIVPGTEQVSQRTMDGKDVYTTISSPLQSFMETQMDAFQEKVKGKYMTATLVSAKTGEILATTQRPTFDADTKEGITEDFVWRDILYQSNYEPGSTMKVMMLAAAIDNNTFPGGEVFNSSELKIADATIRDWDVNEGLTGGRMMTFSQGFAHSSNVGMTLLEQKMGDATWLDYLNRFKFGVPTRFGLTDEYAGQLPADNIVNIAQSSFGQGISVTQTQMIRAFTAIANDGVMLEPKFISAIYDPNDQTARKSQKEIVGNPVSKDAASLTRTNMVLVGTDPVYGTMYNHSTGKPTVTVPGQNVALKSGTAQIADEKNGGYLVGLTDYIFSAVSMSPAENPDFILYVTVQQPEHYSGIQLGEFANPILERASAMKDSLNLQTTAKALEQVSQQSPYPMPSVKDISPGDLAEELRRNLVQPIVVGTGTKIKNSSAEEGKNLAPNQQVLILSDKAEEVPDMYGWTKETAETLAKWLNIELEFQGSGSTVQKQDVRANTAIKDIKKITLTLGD

PBP2a = PBP2a (Streptococcus pneumoniae, UniProt Q8DNB6); experiment: cell-based; type: binding
Chain of PBP2a (Q8DNB6 whole entry): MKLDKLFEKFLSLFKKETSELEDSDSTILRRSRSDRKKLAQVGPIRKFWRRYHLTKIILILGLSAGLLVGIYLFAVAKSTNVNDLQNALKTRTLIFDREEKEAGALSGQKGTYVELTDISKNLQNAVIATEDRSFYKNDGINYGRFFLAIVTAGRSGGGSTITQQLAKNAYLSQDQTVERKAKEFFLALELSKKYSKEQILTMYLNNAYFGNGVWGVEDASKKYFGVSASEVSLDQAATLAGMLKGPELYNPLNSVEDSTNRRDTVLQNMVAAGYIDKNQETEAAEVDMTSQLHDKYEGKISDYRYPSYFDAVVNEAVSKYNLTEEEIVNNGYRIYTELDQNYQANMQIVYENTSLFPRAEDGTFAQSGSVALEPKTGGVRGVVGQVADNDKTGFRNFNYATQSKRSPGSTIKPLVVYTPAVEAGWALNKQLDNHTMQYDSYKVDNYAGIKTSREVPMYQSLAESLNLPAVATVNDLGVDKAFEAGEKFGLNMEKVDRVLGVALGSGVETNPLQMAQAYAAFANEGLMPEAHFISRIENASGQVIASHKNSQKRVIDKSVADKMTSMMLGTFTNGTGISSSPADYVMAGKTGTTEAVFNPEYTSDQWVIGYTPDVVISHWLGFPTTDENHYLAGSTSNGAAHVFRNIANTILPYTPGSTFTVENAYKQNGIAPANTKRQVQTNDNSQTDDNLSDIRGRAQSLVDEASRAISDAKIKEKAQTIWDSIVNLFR

PBP2b = PBP2b (Streptococcus pneumoniae, UniProt P0A3M6); experiment: cell-based; type: binding
Chain of PBP2b (P0A3M6 whole entry): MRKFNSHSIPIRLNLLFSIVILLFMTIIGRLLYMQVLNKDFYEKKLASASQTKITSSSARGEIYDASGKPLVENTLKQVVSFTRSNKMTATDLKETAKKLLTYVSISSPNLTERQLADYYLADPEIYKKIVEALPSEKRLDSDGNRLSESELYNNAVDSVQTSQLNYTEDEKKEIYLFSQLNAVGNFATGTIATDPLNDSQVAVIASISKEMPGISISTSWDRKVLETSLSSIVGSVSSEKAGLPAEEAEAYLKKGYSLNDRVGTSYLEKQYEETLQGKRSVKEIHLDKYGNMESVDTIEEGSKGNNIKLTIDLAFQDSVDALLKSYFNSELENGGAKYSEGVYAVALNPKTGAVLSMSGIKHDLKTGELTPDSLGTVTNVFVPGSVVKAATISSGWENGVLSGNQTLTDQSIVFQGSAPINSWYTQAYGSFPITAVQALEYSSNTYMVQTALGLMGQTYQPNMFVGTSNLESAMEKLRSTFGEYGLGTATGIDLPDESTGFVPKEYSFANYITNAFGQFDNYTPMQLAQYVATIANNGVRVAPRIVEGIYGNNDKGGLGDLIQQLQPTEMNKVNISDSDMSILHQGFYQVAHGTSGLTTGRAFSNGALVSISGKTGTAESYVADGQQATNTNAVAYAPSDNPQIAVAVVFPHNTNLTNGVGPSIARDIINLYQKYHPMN

PBP3 = biological target: T1, PBP3 (Streptococcus pneumoniae, UniProt Q8DQ99); conditions: read-out: IC50 PBP3
T1 sequence (Q8DQ99 23-413): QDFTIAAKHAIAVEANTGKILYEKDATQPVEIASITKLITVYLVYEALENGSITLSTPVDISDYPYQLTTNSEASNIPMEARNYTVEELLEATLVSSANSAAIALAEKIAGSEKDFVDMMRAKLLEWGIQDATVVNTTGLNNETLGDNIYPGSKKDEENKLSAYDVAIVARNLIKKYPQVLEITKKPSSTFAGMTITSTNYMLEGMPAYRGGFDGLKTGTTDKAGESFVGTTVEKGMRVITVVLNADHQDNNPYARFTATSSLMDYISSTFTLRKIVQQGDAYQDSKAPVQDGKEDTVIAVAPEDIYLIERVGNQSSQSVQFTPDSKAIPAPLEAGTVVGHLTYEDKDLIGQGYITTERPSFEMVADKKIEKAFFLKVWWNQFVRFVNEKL

[1] = test system: penicillin-binding proteins (PBPs); conditions: S. pneumoniae, previous assessment; ref Kocaoglu et al. 2015; cited from earlier work
[2] = test system: penicillin-binding proteins (PBPs); conditions: line of the Δpbp1b mutant strain; 4-fold rule
[3] = strain IU1945, average ± SEM of two experiments
[4] = Δpbp1b mutant strain, average ± SEM
[5] = Δpbp1a mutant strain, average ± SEM

With `C[C@@H](O)[C@H]1C(=O)N2C(C(=O)O)=C(SCCN=CN)C[C@H]12` [Imipenem, imipenem] the MIC (S. pneumoniae IU1945) was 0.1 µM (≈ 0.0299 µg/mL), the IC50 (PBP1a; [3]) was 0.027 ± 0.005 µM and the IC50 (PBP1b; [3]) was 0.052 ± 0.022 µM. It also gave an IC50 (PBP2x; [3]) of 0.048 ± 0.013 µM, an IC50 (PBP2a; [3]) of 0.062 ± 0.021 µM and an IC50 (PBP2b; [3]) of 0.052 ± 0.011 µM. The IC50 (PBP3; [3]) was 0.007 ± 0.001 µM.
Compound `CC1(C)S[C@@H]2[C@H](NC(=O)[C@H](C(=O)O)c3ccsc3)C(=O)N2[C@H]1C(=O)O` [Ticarcillin, ticarcillin] has an IC50 (PBP1a; [3]) of 0.827 ± 0.365 µM, an IC50 (PBP1b; [3]) of 1.01 ± 0.331 µM and an IC50 (PBP2x; [3]) of 0.251 ± 0.109 µM. The IC50 (PBP2a; [3]) was 7.74 ± 2.6 µM, the IC50 (PBP2b; [3]) was 3.34 ± 1.48 µM and the IC50 (PBP3; [3]) was 0.146 ± 0.087 µM.
Compound `COCC1=C(C(=O)O)N2C(=O)[C@@H](NC(=O)/C(=N\OC)c3csc(N)n3)[C@H]2SC1` [Cefpodoxime, cefpodoxime] has an MIC (S. pneumoniae IU1945) of 0.01 µM (≈ 0.00427 µg/mL), an IC50 (PBP1a; [3]) of 1.92 ± 0.581 µM and an IC50 (PBP1a; [4]) of 2.78 ± 0.886 µM. It also gave an IC50 (PBP1b; [3]) of 0.907 ± 0.406 µM, an IC50 (PBP1b; [5]) of 0.301 ± 0.071 µM and an IC50 (PBP2x; [3]) of 0.041 ± 0.015 µM. For the same compound, the IC50 (PBP2x; [4]) was 0.035 ± 0.018 µM, the IC50 (PBP2a; [3]) was 0.341 ± 0.125 µM and the IC50 (PBP2a; [5]) was 0.621 ± 0.161 µM. For the same compound, the IC50 (PBP2a; [4]) was 0.179 ± 0.081 µM, the IC50 (PBP2b; [3]) was 0.522 ± 0.231 µM and the IC50 (PBP2b; [5]) was over 1000 µM. The IC50 (PBP2b; [4]) was over 1000 µM, the IC50 (PBP3; [3]) was 0.032 ± 0.005 µM and the IC50 (PBP3; [5]) was 0.032 ± 0.004 µM. The IC50 (PBP3; [4]) was 0.018 ± 0.004 µM.
`Cc1onc(-c2c(Cl)cccc2Cl)c1C(=O)N[C@@H]1C(=O)N2[C@@H]1SC(C)(C)[C@@H]2C(=O)O` [Dicloxacillin, dicloxacillin] showed an MIC (S. pneumoniae IU1945) of 0.01 µM (≈ 0.0047 µg/mL), an IC50 (PBP1a; [3]) of 0.385 ± 0.261 µM and an IC50 (PBP1b; [3]) of 1.14 ± 1.37 µM. For the same compound, the IC50 (PBP2x; [3]) was 0.042 ± 0.055 µM, the IC50 (PBP2a; [3]) was 4.84 ± 4.74 µM and the IC50 (PBP2b; [3]) was 8.7 µM. It also gave an IC50 (PBP3; [3]) of 0.065 ± 0.051 µM.
Compound `CC1(C)S[C@@H]2[C@H](NC(=O)C(C(=O)O)c3ccccc3)C(=O)N2[C@H]1C(=O)O` (some centres unmarked) [Carbenicillin, carbenicillin] has an MIC (S. pneumoniae IU1945) of 0.1 µM (≈ 0.0378 µg/mL), an IC50 (PBP1a; [3]) of 1.11 ± 0.367 µM and an IC50 (PBP1b; [3]) of 0.859 ± 0.285 µM. It also gave an IC50 (PBP2x; [3]) of 0.962 ± 0.506 µM, an IC50 (PBP2a; [3]) of 5.64 ± 4.47 µM and an IC50 (PBP2b; [3]) of 2.12 ± 1.15 µM. The IC50 (PBP3; [3]) was 0.018 ± 0.011 µM.
In the case of `C[C@@H](O)[C@H]1C(=O)N2C(C(=O)O)=C(S[C@@H]3CN[C@H](CNS(N)(=O)=O)C3)[C@H](C)[C@H]12` [Doripenem, doripenem], the “PBP selectivity (previous report)” value [1] is listed as “co-selectivity towards PBP3 along with PBP1a, but these molecules were additionally co-selective for PBP2x”.
With `N[C@@H](C(=O)N[C@@H]1C(=O)N2C(C(=O)O)=C(Cl)CS[C@H]12)c1ccccc1` [Cefaclor, cefaclor] the MIC (S. pneumoniae IU1945) was 10 µM (≈ 3.68 µg/mL), the IC50 (PBP1a; [3]) was 3.6 ± 1.33 µM and the IC50 (PBP1b; [3]) was 8.59 ± 3.63 µM. It also gave an IC50 (PBP2x; [3]) of 3.67 ± 2.52 µM, an IC50 (PBP2b; [3]) of 55.4 ± 26.3 µM and an IC50 (PBP3; [3]) of 0.034 ± 0.009 µM.
Work on `C[C@@H](O)[C@H]1C(=O)N2C(C(=O)O)=C(S[C@@H]3CN[C@H](C(=O)Nc4cccc(C(=O)O)c4)C3)[C@H](C)[C@H]12` [Ertapenem, ertapenem] yielded an MIC (S. pneumoniae IU1945) of 0.01 µM (≈ 0.00476 µg/mL), an IC50 (PBP1a; [3]) of 0.118 ± 0.064 µM and an IC50 (PBP1a; [4]) of 0.038 ± 0.012 µM. For the same compound, the IC50 (PBP1b; [3]) was 0.137 ± 0.375 µM, the IC50 (PBP1b; [5]) was 0.326 ± 0.082 µM and the IC50 (PBP2x; [3]) was 0.752 ± 0.817 µM. For the same compound, the IC50 (PBP2x; [5]) was 0.341 ± 0.251 µM, the IC50 (PBP2x; [4]) was 0.729 ± 0.122 µM and the IC50 (PBP2a; [3]) was 26.8 ± 4.08 µM. The IC50 (PBP2a; [4]) was 6.69 ± 0.401 µM, the IC50 (PBP2b; [3]) was 13.8 ± 3.49 µM and the IC50 (PBP2b; [5]) was 3.86 ± 7.4 µM. It also gave an IC50 (PBP2b; [4]) of over 1000 µM, an IC50 (PBP3; [3]) of 0.061 ± 0.043 µM and an IC50 (PBP3; [5]) of 0.012 ± 0.006 µM. The IC50 (PBP3; [4]) was 0.031 ± 0.011 µM and the PBP selectivity [2] was “co-selectivity towards PBP3 and PBP1a and 3, la”.
In the case of `C[C@@H](O)[C@H]1C(=O)N2C(C(=O)O)=C(S[C@@H]3CN[C@H](C(=O)N(C)C)C3)[C@H](C)[C@H]12` [Meropenem, meropenem], the “PBP selectivity (previous report)” value [1] is listed as “co-selectivity towards PBP3 along with PBP1a, but these molecules were additionally co-selective for PBP2x”.
